We go through 24 compounds from ChEMBL document CHEMBL1933004, “Novel (S)-1,2,3,4-tetrahydroisoquinoline-3-carboxylic acids: peroxisome proliferator-activated receptor γ selective agonists with protein-tyrosine phosphatase 1B inhibition” (Bioorg Med Chem, 2012).

The target in assay [1] is T1, Peroxisome proliferator-activated receptor alpha (Homo sapiens) (UniProt Q07869).
T1 sequence (whole entry): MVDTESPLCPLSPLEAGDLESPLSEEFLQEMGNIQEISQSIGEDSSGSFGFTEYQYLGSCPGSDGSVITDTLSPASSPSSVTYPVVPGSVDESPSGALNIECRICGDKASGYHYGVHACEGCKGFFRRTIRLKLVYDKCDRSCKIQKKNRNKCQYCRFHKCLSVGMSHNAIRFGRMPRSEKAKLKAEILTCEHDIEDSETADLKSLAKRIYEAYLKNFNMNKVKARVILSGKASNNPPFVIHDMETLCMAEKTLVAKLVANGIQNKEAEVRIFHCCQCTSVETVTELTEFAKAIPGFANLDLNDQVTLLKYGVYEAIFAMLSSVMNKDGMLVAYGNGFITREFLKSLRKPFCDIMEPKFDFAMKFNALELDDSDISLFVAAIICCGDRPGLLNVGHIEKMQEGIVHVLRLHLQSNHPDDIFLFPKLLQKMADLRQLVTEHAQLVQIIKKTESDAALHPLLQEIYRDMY
Description: Transactivation of human full length PPARalpha expressed in COS1 cells co-transfected with RXRalpha after 24 hrs by luciferase reporter gene assay relative to WY14643. Format: cell-based. Particulars: COS-1.

Assay [2] has as its target T2, Peroxisome proliferator-activated receptor gamma (Homo sapiens, UniProt P37231).
T2 sequence (P37231 whole entry): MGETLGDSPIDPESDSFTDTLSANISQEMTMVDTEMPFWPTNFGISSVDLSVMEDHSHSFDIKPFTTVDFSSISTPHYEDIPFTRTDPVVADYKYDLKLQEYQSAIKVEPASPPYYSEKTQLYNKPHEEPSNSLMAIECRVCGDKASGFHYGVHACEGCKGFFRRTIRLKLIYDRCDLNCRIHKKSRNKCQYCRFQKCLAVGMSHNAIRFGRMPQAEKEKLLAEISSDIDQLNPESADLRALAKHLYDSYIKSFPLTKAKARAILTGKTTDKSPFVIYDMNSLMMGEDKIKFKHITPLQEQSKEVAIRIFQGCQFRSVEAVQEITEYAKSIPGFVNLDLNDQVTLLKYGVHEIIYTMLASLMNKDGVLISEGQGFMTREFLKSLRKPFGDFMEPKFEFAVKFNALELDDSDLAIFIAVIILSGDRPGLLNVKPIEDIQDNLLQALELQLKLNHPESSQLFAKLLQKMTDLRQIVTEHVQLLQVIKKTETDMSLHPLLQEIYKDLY
Put plainly: Transactivation of human full length PPARgamma expressed in COS1 cells co-transfected with RXRalpha after 24 hrs by luciferase reporter gene assay. The format is cell-based, COS-1.

Another assay relates to Mus musculus. Description: Hypoglycemic activity in diabetic KK-Ay mouse model assessed as decrease in glucose level at 10 mg/kg, po qd for 4 days relative to untreated control. The format is functional. The arrangement: scale not given: the % may be the effect or the level left.
For assay [3], the target named is T3, Tyrosine-protein phosphatase non-receptor type 1 (Homo sapiens, UniProt P18031).
T3 sequence (P18031 whole entry): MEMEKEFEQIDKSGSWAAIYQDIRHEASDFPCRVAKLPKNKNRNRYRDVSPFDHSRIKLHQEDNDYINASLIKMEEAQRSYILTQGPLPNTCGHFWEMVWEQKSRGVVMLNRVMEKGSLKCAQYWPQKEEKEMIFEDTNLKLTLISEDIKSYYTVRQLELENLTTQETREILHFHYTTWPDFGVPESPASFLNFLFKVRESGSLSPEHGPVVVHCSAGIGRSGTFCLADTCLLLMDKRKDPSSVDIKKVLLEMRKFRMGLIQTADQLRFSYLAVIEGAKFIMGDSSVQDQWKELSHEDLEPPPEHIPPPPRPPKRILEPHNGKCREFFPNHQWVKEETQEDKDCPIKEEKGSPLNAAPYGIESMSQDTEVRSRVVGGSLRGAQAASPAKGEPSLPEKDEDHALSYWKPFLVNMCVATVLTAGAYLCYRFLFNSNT
Description: Inhibition of PTB1B using pNPP as substrate after 30 mins.

Assay [4] concerns the target T4, Peroxisome proliferator-activated receptor gamma (Homo sapiens) (UniProt P37231).
T4 sequence (whole entry): T2 sequence (P37231 whole entry)
Put plainly: Transactivation of human full length PPARgamma expressed in COS1 cells co-transfected with RXRalpha after 24 hrs by luciferase reporter gene assay relative to farglitazar. The format is cell-based. The note with it: COS-1.

Assay [5] has as its target T5, Peroxisome proliferator-activated receptor alpha (Homo sapiens, UniProt Q07869).
T5 sequence (Q07869 whole entry): T1 sequence (whole entry)
Put plainly: Transactivation of human full length PPARalpha expressed in COS1 cells co-transfected with RXRalpha after 24 hrs by luciferase reporter gene assay. The format is cell-based, COS-1. A general note: A reporter such as luciferase makes a cellular process visible.

Turning to `C/C=C/C=C/C(=O)N1Cc2cc(OCCc3nc(/C=C/CC(C)(C)C)oc3C)ccc2C[C@H]1C(=O)O.CC(C)(C)N`, the Emax was less than 50% in assay [1] and 92% in assay [4]. This compound also displayed a half-maximal effective concentration (EC50) in assay [2] of 0.16 µM. Moreover, the Activity in the assay with Mus musculus is recorded as 39%. For the same compound, inhibition in assay [3] was half-maximal at 1.95 µM (IC50).
Turning to `CC(C)(C)N.CCO/C=C/C(=O)N1Cc2cc(OCCc3nc(/C=C/CCC(C)C)oc3C)ccc2C[C@H]1C(=O)O`, the Emax in assay [1] is less than 50%; in assay [4] it was 101%. A half-maximal effect in assay [2] (EC50) was put at 0.02 µM. Further, in the assay with Mus musculus, the Activity is reported as 33%. Besides, the IC50 in assay [3] was found to be 2.55 µM.
`CC(C)(C)N.Cc1oc(/C=C/CCC(C)C)nc1CCOc1ccc2c(c1)CN(C(=O)/C=C/c1cccs1)[C@H](C(=O)O)C2`: the values for the Emax in assay [1] and in assay [4] were less than 50% and 99%, respectively. In addition, the 50% effective concentration (EC50) in assay [2] is 0.04 µM. Besides, the Activity in the assay on Mus musculus is on record as 45%. Also, the IC50 in assay [3] was 1.05 µM.
For the compound `C/C=C/C=C/C(=O)N1Cc2cc(OCCc3nc(/C(C)=C/CC)oc3C)ccc2C[C@H]1C(=O)O.CC(C)(C)N`, the Emax is less than 50% in assay [1] and 96% in assay [4]. Besides, a half-maximal response in assay [2] (EC50) required 0.12 µM. Moreover, the Activity with Mus musculus is on record as 40%. The same compound had an IC50 in assay [3] of 4.4 µM.
As to `CC(C)(C)N.Cc1oc(/C=C/CCC(C)C)nc1CCOc1ccc2c(c1)CN(C(=O)/C=C/C=C/CO)[C@H](C(=O)O)C2`, the values for the Emax in assay [1] and in assay [4] were less than 50% and 61%, respectively. The Activity in the assay with Mus musculus is given as 14%. In addition, in assay [3], the IC50 turned out to be 3.2 µM.
On to `CC(C)(C)N.Cc1oc(/C=C/CCC(C)C)nc1CCOc1ccc2c(c1)CN(C(=O)/C=C/c1ccco1)[C@H](C(=O)O)C2`, for which the Emax is less than 50% in assay [1] and 102% in assay [4]. This compound also yielded an EC50 in assay [2] of 0.07 µM. The Activity in the assay with Mus musculus is listed as 29%. The compound further returned an IC50 in assay [3] of 0.57 µM.
As to `C=CCCC(=O)N1Cc2cc(OCCc3nc(/C=C/CCC(C)C)oc3C)ccc2C[C@H]1C(=O)O.CC(C)(C)N`, the Emax in assay [1] is less than 50%; in assay [4] it was 105%. In assay [2], this compound registered an EC50 of 0.04 µM. In addition, the Activity in the assay with Mus musculus is 45%. The compound further registered an IC50 in assay [3] of 1.69 µM.
In the case of `CC(C)(C)N.CCCCCC(=O)N1Cc2cc(OCCc3nc(/C=C/CCC(C)C)oc3C)ccc2C[C@H]1C(=O)O`, the Emax was less than 50% in assay [1] and 94% in assay [4]. For the same compound, the EC50 in assay [2] worked out at 0.02 µM. Further, the Activity in the assay on Mus musculus is 30%. In assay [3], this compound showed an IC50 of 0.94 µM.
In the same order, the values of `C/C=C/C=C/C(=O)N1Cc2cc(OCCc3nc(/C=C/C(C)(C)C)oc3C)ccc2C[C@H]1C(=O)O.CC(C)(C)N` are less than 50%, 97%, 0.54 µM, 23% and 2.25 µM.
In the same order, the values of `C/C=C/C=C/C(=O)N1Cc2cc(OCCc3nc(/C(=C/C)CC)oc3C)ccc2C[C@H]1C(=O)O.CC(C)(C)N` are less than 50%, 91%, 0.35 µM, 47% and 5.6 µM.
In the same order, the values of `CC(C)(C)N.CCOCCC(=O)N1Cc2cc(OCCc3nc(/C=C/CCC(C)C)oc3C)ccc2C[C@H]1C(=O)O` are less than 50%, 86%, 0.07 µM, -13% and 3.35 µM.
For `C/C=C/C=C/C(=O)N1Cc2cc(OCCc3nc(/C=C/C(C)CCC)oc3C)ccc2C[C@H]1C(=O)O.CC(C)(C)N` (some centres not stated), the Emax is less than 50% in assay [1] and 82% in assay [4]. In assay [2], this compound yielded an EC50 of 0.31 µM. In the assay with Mus musculus, the Activity is 71%. In addition, in assay [3], the IC50 is 1.41 µM.
For the compound `C/C=C/C=C/C(=O)N1Cc2cc(OCCc3nc(/C=C/C(CC)CC)oc3C)ccc2C[C@H]1C(=O)O.CC(C)(C)N`, the Emax in assay [1] amounted to 66%; in assay [4] it was 90%. In assay [2], this compound yielded an EC50 of 0.76 µM. The Activity with Mus musculus is reported as 18%. In addition, the IC50 in assay [3] stood at 1.3 µM.
In the case of `CC(C)(C)N.CC(C)=C/C=C/C(=O)N1Cc2cc(OCCc3nc(/C=C/CCC(C)C)oc3C)ccc2C[C@H]1C(=O)O`, the values for the Emax in assay [1] and in assay [4] were 64% and 85%, respectively. The EC50 in assay [2] was determined as 0.03 µM; in assay [5], 0.1 µM. Further, the Activity in the assay on Mus musculus turned out to be 44%. This compound showed an IC50 in assay [3] of 0.95 µM.
Consider `C=CCCCC(=O)N1Cc2cc(OCCc3nc(/C=C/CCC(C)C)oc3C)ccc2C[C@H]1C(=O)O.CC(C)(C)N`, for which the Emax in assay [1] is less than 50%; in assay [4] it was 106%. In addition, a half-maximal effect in assay [2] (EC50) was put at 0.05 µM. Further, the Activity in the assay on Mus musculus worked out at 22%. Further, the IC50 in assay [3] came out at 1.43 µM.
For `C/C=C/C=C/C(=O)N1Cc2cc(OCCc3nc(CCCCC(C)C)oc3C)ccc2C[C@H]1C(=O)O.CC(C)(C)N` the same measures were less than 50%, 89%, 0.11 µM, 17% and 1.15 µM.
For `C/C=C/C=C(\C)C(=O)N1Cc2cc(OCCc3nc(/C=C/CCC(C)C)oc3C)ccc2C[C@H]1C(=O)O.CC(C)(C)N` the same measures were less than 50%, 98%, 0.05 µM, 21% and 2.03 µM.
For `CC(C)(C)N.CCC/C=C/C(=O)N1Cc2cc(OCCc3nc(/C=C/CCC(C)C)oc3C)ccc2C[C@H]1C(=O)O` the same measures were less than 50%, 96%, 0.03 µM, 50% and 1.18 µM.
Regarding `CC(C)(C)N.Cc1oc(/C=C/CCC(C)C)nc1CCOc1ccc2c(c1)CN(C(=O)/C=C/C1CC1)[C@H](C(=O)O)C2`, the results for the Emax in assay [1] and in assay [4] were less than 50% and 84%, respectively. Moreover, in assay [2], a half-maximal effect (EC50) was put at 0.07 µM. Further, the Activity in the assay on Mus musculus was determined as 27%. This compound also came in with an IC50 in assay [3] of 1.05 µM.
In the same order, the values of `CC(C)(C)N.CCOC/C=C/C(=O)N1Cc2cc(OCCc3nc(/C=C/CCC(C)C)oc3C)ccc2C[C@H]1C(=O)O` are less than 50%, 108%, 0.09 µM, 3% and 3.8 µM.
Regarding `C/C=C/C=C/C(=O)N1Cc2cc(OCCc3nc(/C=C/C(C)C)oc3C)ccc2C[C@H]1C(=O)O.CC(C)(C)N`, the Emax in assay [1] was determined as 62%; in assay [4], 104%. Besides, the EC50 in assay [2] is 0.67 µM; in assay [5], 0.3 µM. The Activity in the assay with Mus musculus is 38%. Moreover, the IC50 in assay [3] came out at 2.2 µM.
Consider `CC(C)(C)N.CCC(O)/C=C/C(=O)N1Cc2cc(OCCc3nc(/C=C/CCC(C)C)oc3C)ccc2C[C@H]1C(=O)O` (some centres not stated), for which the results for the Emax in assay [1] and in assay [4] were less than 50% and 104%, respectively. In assay [2], this compound displayed an EC50 of 0.24 µM. The Activity in the assay with Mus musculus turned out to be 19%. The IC50 in assay [3] was determined as 6.2 µM.
Take `C/C=C/C=C/C(=O)N1Cc2cc(OCCc3nc(/C=C/CC(C)C)oc3C)ccc2C[C@H]1C(=O)O.CC(C)(C)N`: the Emax in assay [1] is 81%; in assay [4] it was 103%. Moreover, the EC50 in assay [2] is 0.16 µM; in assay [5], 0.24 µM. For the same compound, the Activity in the assay on Mus musculus was found to be 58%. Further, the IC50 in assay [3] is 2 µM.
Take `C/C=C/C=C/C(=O)N1Cc2cc(OCCc3nc(/C=C/C(C)(C)CC)oc3C)ccc2C[C@H]1C(=O)O.CC(C)(C)N`: the Emax in assay [1] is less than 50%; in assay [4], 77%. For the same compound, the EC50 in assay [2] was determined as 0.76 µM. Moreover, the Activity in the assay with Mus musculus came out at 16%. The same compound had an IC50 in assay [3] of 1.2 µM.

The term EC50 denotes the concentration giving half of the maximal effect. In general, IC50 refers to the concentration that inhibits the measured activity by half.
